{"source": "patent US20130029928A1", "about": "(priority 2010, published 2013)", "assay": "Phase I study CXR1002-001: plasma pharmacokinetics (LC-MS/MS)", "format": "in vivo, human", "settings": "human, plasma, oral, person, plasma, read-out: Concentration; for concentration at 168 h: 168 hr (Day 8); for concentration at 192 h: 192 hr (Day 9); for concentration at 336 h: 336 hr (Day 15); for concentration at 360 h: 360 hr (Day 16); for concentration at 504 h: 504 hr (Day 22); for concentration at 528 h: 528 hr (Day 23); for concentration at 672 h: 672 hr (Day 29); for concentration at 696 h: 696 hr (Day 30); for concentration at 840 h: 840 hr (Day 36); for concentration at 24 h: 24 hr (Day 2)", "description": "PK samples, PD (fasting) samples, blood glucose, and blood triglyceride samples, were taken over a 6-week period.\nDose limiting toxicity (DLT) will be based on the toxicity assessments over the first 3-week period of the repeat dosing schedule. PK samples (single blood sample) were taken on the following basis: • Every 6 weeks during the repeat dosing phase • If dosing is interrupted or stopped, samples will be taken at intervals according to patient convenience • PK sampling for safety evaluation may take place at any time, as clinically indicated\nPlasma samples were collected after the single 50 mg dose at the following timepoints: Pre-dose, and then 0.25, 0.5, 0.75, 1, 1.5, 2, 3, 4, 6, 24, 48, and 72 hours after administration and then once weekly at weeks 2, 3, 4, 5, and 6 (days 8, 15, 22, 29, and 36). For patients treated with the weekly repeat dose, plasma samples were collected at the following timepoints: Pre-dose and then 2, 3, 4 and 24 hours after administration for a total of 6 weeks. Thereafter a single sample was collected every 6 weeks for monitoring of exposure during long term treatment. Plasma samples were processed at site and stored at −80° C. prior to batch shipment to the analytical laboratory.", "note": "Where two headings read alike, the source gives them in different places."}
{"smiles": "O=C(O)C(F)(F)C(F)(F)C(F)(F)C(F)(F)C(F)(F)C(F)(F)C(F)(F)F", "note": "[CXR1002]", "values": [{"measurement": "concentration at 168 h", "setting": "750 mg, Patient 027, 750 mg", "value": 168, "unit": "µM"}, {"measurement": "concentration at 170 h", "setting": "750 mg, Patient 027, 750 mg", "value": 235, "unit": "µM"}, {"measurement": "concentration at 171 h", "setting": "750 mg, Patient 027, 750 mg", "value": 318, "unit": "µM"}, {"measurement": "concentration at 172 h", "setting": "750 mg, Patient 027, 750 mg", "value": 344, "unit": "µM"}, {"measurement": "concentration at 192 h", "setting": "750 mg, Patient 027, 750 mg", "value": 411, "unit": "µM"}, {"measurement": "concentration at 336 h", "setting": "750 mg, Patient 027, 750 mg", "value": 366, "unit": "µM"}, {"measurement": "concentration at 338 h", "setting": "750 mg, Patient 027, 750 mg", "value": 384, "unit": "µM"}, {"measurement": "concentration at 339 h", "setting": "750 mg, Patient 027, 750 mg", "value": 412, "unit": "µM"}, {"measurement": "concentration at 340 h", "setting": "750 mg, Patient 027, 750 mg", "value": 451, "unit": "µM"}, {"measurement": "concentration at 360 h", "setting": "750 mg, Patient 027, 750 mg", "value": 569, "unit": "µM"}, {"measurement": "concentration at 504 h", "setting": "750 mg, Patient 027, 750 mg", "value": 476, "unit": "µM"}, {"measurement": "concentration at 506 h", "setting": "750 mg, Patient 027, 750 mg", "value": 658, "unit": "µM"}, {"measurement": "concentration at 507 h", "setting": "750 mg, Patient 027, 750 mg", "value": 669, "unit": "µM"}, {"measurement": "concentration at 508 h", "setting": "750 mg, Patient 027, 750 mg", "value": 671, "unit": "µM"}, {"measurement": "concentration at 528 h", "setting": "750 mg, Patient 027, 750 mg", "value": 720, "unit": "µM"}, {"measurement": "concentration at 672 h", "setting": "750 mg, Patient 027, 750 mg", "value": 606, "unit": "µM"}, {"measurement": "concentration at 674 h", "setting": "750 mg, Patient 027, 750 mg", "value": 769, "unit": "µM"}, {"measurement": "concentration at 675 h", "setting": "750 mg, Patient 027, 750 mg", "value": 811, "unit": "µM"}, {"measurement": "concentration at 676 h", "setting": "750 mg, Patient 027, 750 mg", "value": 757, "unit": "µM"}, {"measurement": "concentration at 696 h", "setting": "750 mg, Patient 027, 750 mg", "value": 803, "unit": "µM"}, {"measurement": "concentration at 840 h", "setting": "750 mg, Patient 027, 750 mg", "value": 673, "unit": "µM"}, {"measurement": "concentration at 2 h", "setting": "750 mg, Patient 028, 750 mg", "value": 207, "unit": "µM"}, {"measurement": "concentration at 3 h", "setting": "750 mg, Patient 028, 750 mg", "value": 174, "unit": "µM"}, {"measurement": "concentration at 4 h", "setting": "750 mg, Patient 028, 750 mg", "value": 160, "unit": "µM"}, {"measurement": "concentration at 24 h", "setting": "750 mg, Patient 028, 750 mg", "value": 160, "unit": "µM"}, {"measurement": "concentration at 168 h", "setting": "750 mg, Patient 028, 750 mg", "value": 161, "unit": "µM"}, {"measurement": "concentration at 170 h", "setting": "750 mg, Patient 028, 750 mg", "value": 321, "unit": "µM"}, {"measurement": "concentration at 171 h", "setting": "750 mg, Patient 028, 750 mg", "value": 301, "unit": "µM"}, {"measurement": "concentration at 172 h", "setting": "750 mg, Patient 028, 750 mg", "value": 273, "unit": "µM"}, {"measurement": "concentration at 192 h", "setting": "750 mg, Patient 028, 750 mg", "value": 295, "unit": "µM"}, {"measurement": "concentration at 336 h", "setting": "750 mg, Patient 028, 750 mg", "value": 288, "unit": "µM"}, {"measurement": "concentration at 338 h", "setting": "750 mg, Patient 028, 750 mg", "value": 473, "unit": "µM"}, {"measurement": "concentration at 339 h", "setting": "750 mg, Patient 028, 750 mg", "value": 396, "unit": "µM"}, {"measurement": "concentration at 340 h", "setting": "750 mg, Patient 028, 750 mg", "value": 406, "unit": "µM"}, {"measurement": "concentration at 360 h", "setting": "750 mg, Patient 028, 750 mg", "value": 450, "unit": "µM"}, {"measurement": "concentration at 504 h", "setting": "750 mg, Patient 028, 750 mg", "value": 467, "unit": "µM"}, {"measurement": "concentration at 506 h", "setting": "750 mg, Patient 028, 750 mg", "value": 582, "unit": "µM"}, {"measurement": "concentration at 507 h", "setting": "750 mg, Patient 028, 750 mg", "value": 490, "unit": "µM"}, {"measurement": "concentration at 508 h", "setting": "750 mg, Patient 028, 750 mg", "value": 581, "unit": "µM"}, {"measurement": "concentration at 528 h", "setting": "750 mg, Patient 028, 750 mg", "value": 655, "unit": "µM"}, {"measurement": "concentration at 672 h", "setting": "750 mg, Patient 028, 750 mg", "value": 522, "unit": "µM"}, {"measurement": "concentration at 674 h", "setting": "750 mg, Patient 028, 750 mg", "value": 710, "unit": "µM"}, {"measurement": "concentration at 675 h", "setting": "750 mg, Patient 028, 750 mg", "value": 713, "unit": "µM"}, {"measurement": "concentration at 676 h", "setting": "750 mg, Patient 028, 750 mg", "value": 700, "unit": "µM"}, {"measurement": "concentration at 696 h", "setting": "750 mg, Patient 028, 750 mg", "value": 758, "unit": "µM"}, {"measurement": "concentration at 840 h", "setting": "750 mg, Patient 028, 750 mg", "value": 682, "unit": "µM"}, {"measurement": "concentration at 842 h", "setting": "750 mg, Patient 028, 750 mg, 842 hr", "value": 824, "unit": "µM"}, {"measurement": "concentration at 843 h", "setting": "750 mg, Patient 028, 750 mg, 843 hr", "value": 792, "unit": "µM"}, {"measurement": "concentration at 844 h", "setting": "750 mg, Patient 028, 750 mg, 844 hr", "value": 853, "unit": "µM"}, {"measurement": "concentration at 864 h", "setting": "750 mg, Patient 028, 750 mg, 864 hr (Day 37)", "value": 775, "unit": "µM"}, {"measurement": "concentration at 2 h", "setting": "950 mg, Patient 029, 950 mg", "value": 219, "unit": "µM"}, {"measurement": "concentration at 3 h", "setting": "950 mg, Patient 029, 950 mg", "value": 251, "unit": "µM"}, {"measurement": "concentration at 4 h", "setting": "950 mg, Patient 029, 950 mg", "value": 307, "unit": "µM"}, {"measurement": "concentration at 24 h", "setting": "950 mg, Patient 029, 950 mg", "value": 353, "unit": "µM"}, {"measurement": "concentration at 168 h", "setting": "950 mg, Patient 029, 950 mg", "value": 289, "unit": "µM"}, {"measurement": "concentration at 170 h", "setting": "950 mg, Patient 029, 950 mg", "value": 604, "unit": "µM"}, {"measurement": "concentration at 171 h", "setting": "950 mg, Patient 029, 950 mg", "value": 602, "unit": "µM"}]}
